This is an account of results in paper PMC6950245, “Identification and Characterization of ShSPI, a Kazal-Type Elastase Inhibitor from the Venom of Scolopendra Hainanum” (Toxins, 2019).

Molecules are shown by their SMILES. Where a SMILES comes first, the peptide text is derived from it. Bridges are numbered along the chain shown (N, C = ends).

Data set [1] can be described thus: Plasma stability, read out by enzyme inhibitory activity. The following applies: lyophilized human plasma resuspended in water, 500 nM, 37 °C, 0-48 h, triplicate samples. Type of data set: in vitro ADME. The method, then:
Lyophilized human plasma (400100, Cayman, Ann Arbor, MI, USA) was resuspended in sterile water according to the instruction, then ShSPI was added to each equivalent volume with a final concentration of 500 nM, and samples were co-incubated at 37 °C for two days. Triplicate samples were collected at selected time points (0, 6, 12, 18, 24, 30, 36, 42, and 48 h) and protease activity was tested as described above.

In data set [2] the target is T1, porcine pancreatic elastase (PPE) (Sus scrofa, UniProt P00772).
T1 construct: purchased Sigma-Aldrich E0127
The data set can be described thus: Protease inhibition assay, porcine pancreatic elastase (chromogenic substrate, Dixon method). The data set is classed as biochemical. The following applies: 0.05 M Tris-HCl pH 7.8, 37 °C, 10 min pre-incubation, PPE 1 μg/mL, substrate MeOSuc-Ala-Ala-Pro-Val-pNA 30, 60, 90 μg/mL, absorbance 405 nm. An excerpt: (§1) Human neutrophils elastase (HNE, E8140), porcine pancreatic elastase (PPE, E0127), cathepsin G (CG, C4428), human trypsin (T6424), α-chymotrypsin from human pancreas (C8946), and thrombin from human plasma (T4393) were all purchased from Sigma-Aldrich (USA). Factor Xa (FXa, HFXa 1011) and Factor XIIa (FXIIa, HFXIIa 1212a) were from Enzyme Research Laboratories (South Bend, IN, USA). Kallikrein from human plasma (420307) was from Merck Millipore (Billerica, MA, USA).
Substrate for HNE and PPE (MeOSuc-Ala-Ala-Pro-Val-pNA, 324696) was purchased from Merck Millipore (USA). […]
(§2) As mentioned in our previous study, experiments for protease inhibitory activity were assayed in buffer (0.05 M Tris-HCl, pH 7.8) at 37 °C. […] At the end of the incubation, the reaction was initiated by the addition of the exclusive substrate solution and monitored by recording the absorbance at 405 nm every 30 s for 30 min. Enzyme activity in each well was calculated based on the initial slope of the reaction curve, and percentage of the initial slope of the uninhibited reaction was expressed. The inhibition constant Ki value was determined according to the Dixon method.

Data set [3] deals with T2, human neutrophil elastase (HNE) (Homo sapiens, UniProt P08246).
T2 construct: purchased Sigma-Aldrich E8140
T2 sequence (P08246 30-267): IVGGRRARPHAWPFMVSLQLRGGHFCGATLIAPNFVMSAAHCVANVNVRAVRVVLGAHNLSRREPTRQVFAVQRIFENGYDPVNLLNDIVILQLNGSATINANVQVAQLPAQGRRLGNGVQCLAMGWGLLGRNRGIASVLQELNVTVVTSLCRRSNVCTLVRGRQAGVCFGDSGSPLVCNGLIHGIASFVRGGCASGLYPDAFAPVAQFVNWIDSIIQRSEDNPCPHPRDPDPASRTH
The data set can be described thus: Protease inhibition assay, human neutrophil elastase (chromogenic substrate, Dixon method). The data set is classed as biochemical.
Source text: as §1
Substrate for HNE and PPE (MeOSuc-Ala-Ala-Pro-Val-pNA, 324696) was purchased from Merck Millipore (USA). Substrates for CG (Succinyl-Ala-Ala-Pro-Phe-pNA, 573462), trypsin (Nalpha-Benzoyl-L-arginine 4-nitroanilide hydrochloride, B3133), FXa (CH3OCO-D-CHA-Gly-Arg-pNA-AcOH, F3301), chymotrypsin (N-Succinyl-Gly-Gly-Phe-pNA, S1899), thrombin (β-Ala-Gly-Arg-pNA diacetate, T3068), and kallikrein (Z-Phe-Arg 7-amido-4-methylcoumarin hydrochloride, C9521) were purchased from Sigma-Aldrich (USA).
as §2

Data set [4] has as its target T2, human neutrophil elastase (HNE). Put plainly: Surface plasmon resonance, ShSPI immobilized, HNE injected. The following applies: SPR Biacore 3000, ShSPI on CM5 chip, HNE injected 180 s at 10 μL/min, HBS-P buffer, Langmuir binding fit; read-out: ka, HNE. The method, then:
(§3) Sensor chips CM5 (BR100012), 10 mM acetate buffer (BR100350, pH 4.0), amine coupling kit (BR100050), and HBS-P buffer (BR100826, used as running buffer) were all obtained from GE Healthcare Bio-sciences AB (Uppsala, Sweden). Data were collected and analyzed by BIAcore System (Version 3000, GE Healthcare Life Sciences, Pittsburgh, PA, USA) and BIA evaluation software (Version 3.0, GE Healthcare Life Sciences, Pittsburgh, PA, USA).
(§4) Before testing, ShSPI (100 μg/mL in acetate buffer, pH 4.0) was immobilized to the surface of CM5 chip. Following a standard amine coupling chemistry, running buffer was used to reach equilibration. HNE or PPE (doubling dilution) was injected over the immobilized ShSPI at a flow rate of 10 μL/min, and the association rate (ka, M^−1s^−1) was determined. After 3 min, running buffer was applied to the surface, and the dissociation rate (kd, s^−1) was determined over 15 min for PPE and 30 min for HNE, and another 500 μL of running buffer were injected at a flow rate of 20 μL/min to rebalance the chip. The equilibrium association constant (KA, M^−1) and the equilibrium dissociation constant (KD, M) were determined by ka/kd and kd/ka, respectively.

The target in data set [5] is T1, porcine pancreatic elastase (PPE). The data set can be described thus: Surface plasmon resonance, ShSPI immobilized, PPE injected. The following applies: SPR Biacore 3000, ShSPI on CM5 chip, PPE injected 180 s at 10 μL/min, HBS-P buffer, Langmuir binding fit; read-out: ka, PPE. The method, then: as §3, §4
On the technique in general: Surface plasmon resonance follows binding to a sensor surface in real time, without labels.

The target is the same in data set [6]. Further details: method as in PMID 2049103. The following applies: reported; cited from earlier work.

T1 sequence (P00772 27-266): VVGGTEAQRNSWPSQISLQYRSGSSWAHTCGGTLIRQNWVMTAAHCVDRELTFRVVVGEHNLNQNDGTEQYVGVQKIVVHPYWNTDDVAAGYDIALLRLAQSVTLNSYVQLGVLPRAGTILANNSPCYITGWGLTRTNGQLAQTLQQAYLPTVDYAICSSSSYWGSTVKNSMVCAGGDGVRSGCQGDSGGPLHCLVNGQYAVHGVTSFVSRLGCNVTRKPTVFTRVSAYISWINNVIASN

As usually defined, the Ki is a measure of affinity in units of concentration, obtained from inhibition or displacement. For `CC[C@H](C)[C@@H]1NC(=O)[C@H](C)NC(=O)[C@@H]2CCCN2C(=O)[C@@H]2CSSC[C@H](NC(=O)[C@H](CO)NC(=O)[C@H](CC(N)=O)NC(=O)[C@H](CO)NC(=O)[C@H](Cc3ccc(O)cc3)NC(=O)[C@H](CCSC)NC(=O)[C@H](CCCNC(=N)N)NC(=O)CNC(=O)[C@H](Cc3ccccc3)NC(=O)[C@H](CCC(=O)O)NC(=O)[C@H](CC(=O)O)NC(=O)[C@H](Cc3ccccc3)NC(=O)[C@H](C(C)C)NC(=O)[C@@H]3CCCN3C(=O)[C@H](CCC(N)=O)NC(=O)[C@H](Cc3ccc(O)cc3)NC1=O)C(=O)N[C@@H](CCC(=O)O)C(=O)N[C@@H](CCSC)C(=O)N[C@@H](CCC(N)=O)C(=O)N[C@@H](CCCNC(=N)N)C(=O)N[C@@H](C)C(=O)N[C@@H](CCCNC(=N)N)C(=O)N[C@H](C(=O)N[C@@H](CC(C)C)C(=O)N[C@@H](CCCNC(=N)N)C(=O)NCC(=O)O)CSSC[C@H](N)C(=O)N1CCC[C@H]1C(=O)N[C@@H](CCC(N)=O)C(=O)N[C@@H](C(C)C)C(=O)N2` [ShSPI] (H-CPQVCPAIYQPVFDEFGRMYSNSCEMQRARCLRG-OH; disulfide 1-31, 5-24), the “Stability in human plasma” value in data set [1] was “no significant degradation over 48 h”. The Ki came to 226 ± 20 nM in data set [2] and 12.6 ± 2 nM in data set [3]. Besides, the kon in data set [4] came to 4500 M⁻¹ s⁻¹; in data set [5], 45000 M⁻¹ s⁻¹.

With `CC(C)(C)C(=O)Oc1ccc(S(=O)(=O)Nc2ccccc2C(=O)NCC(=O)O)cc1` [sivelestat], the “Inhibitory activity to PPE (literature)” value in data set [6] is “little inhibitory activity”.
